Patent publication US10350213B2 (AI Therapeutics, Inc., priority 2015, dated 2019)

What was measured:
[1] = test system: SUDHL-4 (Human Diffuse Large B Cell Lymphoma -GCB); assay: CellTiterGlo cell viability assay; type: cell-based; settings: Homo sapiens, 72 h; SU-DHL-4; three-day assay; read-out: IC50 (nM) SU-DHL-4
[2] = test system: WSU-DLCL2 (Human Diffuse Large B Cell Lymphoma -GCB); assay: CellTiterGlo cell viability assay; type: cell-based; settings: Homo sapiens, WSUDLCL2, 72 h, three-day assay, read-out: IC50 (nM) WSU-DLCL2

| SMILES | IC50 [1] [nM] | IC50 [2] [nM] |
| --- | --- | --- |
| CC[C@H](Nc1ncnc2[nH]cnc12)c1nc2cccc(F)c2c(=O)n1-c1ccccc1 [idelalisib] | 2030 | 6150 |
| C[C@H](Nc1ncnc2nc[nH]c12)c1cc2cccc(Cl)c2c(=O)n1-c1ccccc1 [duvelisib] | 13 | 863 |
| CC1(C)CCC(CN2CCN(c3ccc(C(=O)NS(=O)(=O)c4ccc(NCC5CCOCC5)c([N+](=O)[O-])c4)c(Oc4cnc5[nH]ccc5c4)c3)CC2)=C(c2ccc(Cl)cc2)C1 [ABT-199] | 212 | 3370 |

Further compounds by falling IC50 [1], results first:

| IC50 [1] [nM] | IC50 [2] [nM] | SMILES |
| --- | --- | --- |
| 718 | 747 | C=CC(=O)N1CCC[C@@H](n2nc(-c3ccc(Oc4ccccc4)cc3)c3c(N)ncnc32)C1 [ibrutinib] |
| 93 | 165 | O=C(/C=C\n1cnc(-c2cc(C(F)(F)F)cc(C(F)(F)F)c2)n1)NNc1cnccn1 [KPT-330] |
